Values quoted from earlier work in US20070292421A1, “Method for treating preeclampsia” (priority 2005, published 2007).

How the values were obtained:
[1] = tested on: antineutrophil cytoplasmic antibody (ANCA) positive patients
[2] = tested on: human C5a receptor; conditions: numerous models of human disease
[3] = tested on: severe sepsis; conditions: OPTIMIST trial
[4] = tested on: trophoblast apoptosis; conditions: in vitro
[5] = target: serotonin 5-HT2A receptor (Homo sapiens, UniProt P28223)
[6] = tested on: 5-HT2C, 5-HT2B, 5-HT1D, alpha-adrenergic, and dopamine receptors; conditions: relative to 5-HT2A

Sequence of serotonin 5-HT2A receptor (P28223 whole entry): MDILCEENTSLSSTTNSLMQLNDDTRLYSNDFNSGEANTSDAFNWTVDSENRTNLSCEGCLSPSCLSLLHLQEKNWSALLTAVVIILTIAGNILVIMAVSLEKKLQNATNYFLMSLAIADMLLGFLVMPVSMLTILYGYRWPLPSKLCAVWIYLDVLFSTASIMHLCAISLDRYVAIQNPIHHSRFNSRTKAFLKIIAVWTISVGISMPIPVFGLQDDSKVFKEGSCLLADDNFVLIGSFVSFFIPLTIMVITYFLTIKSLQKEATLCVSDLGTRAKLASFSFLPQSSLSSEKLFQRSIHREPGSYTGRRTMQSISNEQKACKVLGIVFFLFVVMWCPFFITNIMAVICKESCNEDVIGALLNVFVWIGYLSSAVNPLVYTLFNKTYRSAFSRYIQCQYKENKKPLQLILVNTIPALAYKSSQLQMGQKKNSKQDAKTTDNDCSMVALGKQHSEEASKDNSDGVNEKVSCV

Q: Which results are given for “Rituximab: monoclonal antibody that binds the B cell surface protein CD20 (Roche Pharmaceuticals)”?
A: clinical improvement ([1]; n=11 patients combined, added to immunosuppressive drug regimen): clinical improvement in all eleven cases; cases with complete clinical improvement ([1]; of eleven cases): eight

Q: For “Ac-Phe [3D53, Ac-Phe [Orn-Pro-D-Cha-Trp-Arg]]”, which anti-inflammatory activity [2] is on record?
A: Its anti-inflammatory activity is “excellent anti-inflammatory activity”.

Q: With “tifacogin: recombinant TFPI (Chiron Corp/Pharmacia Corp)” as the compound, how does the “treatment of severe sepsis” value [3] read?
A: The value was “failure”.

Q: For heparin, which “effect on trophoblast apoptosis” value [4] is on record?
A: Its value is “regulate trophoblast apoptosis”.

Q: Which affinity [5] does the source give for `O=C(c1ccc(F)cc1)C1CCN(CCn2c(=O)[nH]c3ccccc3c2=O)CC1` [Ketanserin] here?
A: Its affinity is “high affinity”.

Q: What about the binding [6] of the same compound?
A: Its binding is “binds less potently”.

Q: For `CC(=O)Oc1ccccc1C(=O)O` [aspirin], which “effect on trophoblast apoptosis” value [4] is on record?
A: The value was “regulate trophoblast apoptosis”.
